Experimental findings from patent US6949574B2 (Bristol-Myers Squibb Company, priority 2002, dated 2005) are described below.

Bounds are passed on as bounds.

The target of one assay is T1, human FAAH (Homo sapiens, UniProt O00519).
T1 construct: expressed in transfected cells; host or cells: H4 cells (H4-FAAH, Geneticin-selected); crude membrane homogenates
T1 sequence (O00519 1-579): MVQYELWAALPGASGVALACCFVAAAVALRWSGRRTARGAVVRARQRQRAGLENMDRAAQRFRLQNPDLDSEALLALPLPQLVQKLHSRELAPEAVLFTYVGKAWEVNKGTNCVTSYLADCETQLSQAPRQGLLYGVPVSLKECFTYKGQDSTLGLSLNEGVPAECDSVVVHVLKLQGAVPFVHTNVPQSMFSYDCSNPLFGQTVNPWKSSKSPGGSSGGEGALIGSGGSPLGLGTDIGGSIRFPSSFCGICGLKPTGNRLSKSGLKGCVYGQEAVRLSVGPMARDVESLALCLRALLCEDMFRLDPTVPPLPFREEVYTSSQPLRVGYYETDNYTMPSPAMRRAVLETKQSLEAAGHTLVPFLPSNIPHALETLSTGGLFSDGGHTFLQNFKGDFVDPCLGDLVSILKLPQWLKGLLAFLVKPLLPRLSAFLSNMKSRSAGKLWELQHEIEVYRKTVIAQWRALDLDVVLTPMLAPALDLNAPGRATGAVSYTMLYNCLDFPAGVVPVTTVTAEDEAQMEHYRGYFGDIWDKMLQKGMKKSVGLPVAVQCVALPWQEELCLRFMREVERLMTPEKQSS
In words: FAAH activity in membrane homogenates of H4-FAAH cells, [3H]-anandamide hydrolysis.
Conditions: not given
It is filed as biochemical. The procedure:
Homogenates of crude membranes were prepared from H4 cells that express transfected human FAAH (H4-FAAH cells). Briefly, cells were grown in DMEM supplemented with 10% FBS and Geneticin at a final concentration of 500 μg/ml (Gibco BRL, Rockville, Md.). Confluent cultures of H4-FAAH cells were rinsed twice with phosphate-buffered saline [138 mM NaCl, 4.1 mM KCl, 5.1 mM Na2PO4, 1.5 mM KH2PO4 (pH 7.5), 37° C.] and incubated for 5 to 10 minutes at 4° C. in lysis buffer [1 mM sodium bicarbonate]. Cells were transferred from plates to polypropylene tubes (16×100 mm), homogenized and centrifuged at 32,000×g for 30 minutes. Pellets were resuspended by homogenization in lysis buffer and centrifuged at 32,000×g for 30 minutes. Pellets were resuspended in lysis buffer (15-20 μg protein/ml) then stored at −80° C. until needed. On the day of an experiment, membranes were diluted to 2.67 μg protein/ml in 125 mM Tris-Cl, pH 9.0.
Activity of FAAH was measured using a modification of the method described by Omeir et al., 1995 (Life Sci 56:1999, 1995). Membrane homogenates (240 ng protein) were incubated at room temperature for one hour with 1.67 nM anandamide [ethanolamine 1-^3H] (available from American Radiolabeled Chemical Inc., St Louis, Mo.) and 10 μM anandamide (available from Sigma/RBI, St. Louis, Mo.) in the absence and presence of inhibitors. The reaction was stopped by the addition of 1 volume of a solution of 1:1 methanol and dichloroethane. The mixture was shaken and then centrifuged at 1000×g for 15 minutes to separate the aqueous and organic phases. An aliquot of the aqueous phase, containing [^3H]-ethanolamine was withdrawn and counted by scintillation spectroscopy. Data were expressed as the percentage of [^3H]-ethanolamine formed versus vehicle, after subtraction of the background radioactivity determined in the presence of 10 μM arachidonyl trifluoromethyl ketone (ATFMK), an inhibitor of FAAH. IC50 values were determined using a four-parameter logistic equation for dose-response curves.
Molecule `CCc1ccc(-c2ccc(NC(=O)Oc3ccccc3F)cc2)cc1` [Example 124, 4′-Ethyl-[1,1′-biphenyl]-4-ylcarbamic acid, 2-fluorophenyl ester] had an IC50 of over 500 nM.
Same read-out and setting: as for `CCCCCCCCCCCOc1ccc(NC(=O)Oc2ccccc2)cc1` [Example 103, 4-Undecyloxyphenylcarbamic acid, phenyl ester], the figure is under 10 nM.

The assay is the same for the next values; noted with them: H4-FAAH cell membranes, 10 μM anandamide, room temperature, one hour; read-out: IC50.
As to `CCCCOc1ccc(C(CC)NC(=O)Oc2cccc3ccccc23)cc1` (stereo not drawn) [Example 127, [1-(4-Butoxy-phenyl)-propyl]-carbamic acid naphthalen-1-yl ester], the half-inhibitory concentration (IC50) lay within 101 to 500 nM.
As for `CCOc1ccc(NC(=O)O/N=C/c2ccc(F)cc2)cc1` [Example 12, 4-Fluorobenzaldehyde, O-[[(4-ethoxyphenyl)amino]carbonyl]oxime], the concentration for half-maximal inhibition (IC50) lay within 10 to 100 nM.
Still for that read-out and setting: for `CCCCOc1ccc(CNC(=O)Oc2cccc3ccccc23)cc1` [Example 115, 4-(Butoxyphenylmethyl)carbamic acid, 1-naphthalenyl ester] the value was 10 to 100 nM.
With `CCCCCCCCCOc1ccc(NC(=O)O/N=C/c2cc(C(F)(F)F)ccc2F)cc1` [Example 57, 2-Fluoro-5-(trifluoromethyl)benzaldehyde, O-[[(4-nonyloxyphenyl)amino]carbonyl]oxime], the IC50 is under 10 nM.
Consider `CCCCOc1ccc(CNC(=O)Oc2ccc(C(F)(F)F)cc2)cc1` [Example 119, 4-(Butoxyphenylmethyl)carbamic acid, 4-(trifluoromethyl)phenyl ester], for which the half-maximal inhibitory concentration (IC50) is 10 to 100 nM.
Still for that read-out and setting: for `O=C(Nc1ccc(OCCc2ccccc2)cc1)O/N=C/c1cccnc1` [Example 79, 3-Pyridinecarboxaldehyde, O-[[[4-(2-phenylethoxy)phenyl]amino]carbonyl]oxime] the value was under 10 nM.
The same measure, in the same setting: for `CCCCOc1ccc(CNC(=O)Oc2ccc3ccccc3c2)cc1` [Example 116, 4-(Butoxyphenylmethyl)carbamic acid, 2-naphthalenyl ester] the value was 10 to 100 nM.
As to `CCCCOc1ccc(CNC(=O)O/N=C/c2ccc(F)cc2)cc1` [Example 63, 4-Fluorobenzaldehyde, O-[[(4-butoxyphenylmethyl)amino]carbonyl]oxime], the IC50 was in the range of 10 to 100 nM.
Same read-out and setting: for `CCCCCCCOc1ccc(NC(=O)Oc2ccccc2F)cc1` [Example 97, 4-Heptyloxyphenylcarbamic acid, 2-fluorophenyl ester] the value was 10 to 100 nM; for `CCCCOc1ccc(CNC(=O)Oc2ccc(F)cc2)cc1` [Example 121, 4-(Butoxyphenylmethyl)carbamic acid, 4-fluorophenyl ester], under 10 nM.
As for `CCCCOc1ccc(CNC(=O)Oc2ccccc2)cc1` [Example 111, 4-(Butoxyphenylmethyl)carbamic acid, phenyl ester], the IC50 is under 10 nM.
On the same count and under the same terms, for `CCCCCCCCCOc1ccc(NC(=O)O/N=C/c2cccc(C(F)(F)F)c2F)cc1` [Example 54, 2-Fluoro-3-(trifluoromethyl)benzaldehyde, O-[[(4-nonyloxyphenyl)amino]carbonyl]oxime] the value was under 10 nM; for `CCCCCCCCCOc1ccc(NC(=O)O/N=C/c2ccc(F)c(F)c2)cc1` [Example 49, 3,4-Difluorobenzaldehyde, O-[[(4-nonyloxyphenyl)amino]carbonyl]oxime], under 10 nM; for `CCCCCCCCCOc1ccc(NC(=O)O/N=C/c2cccc(F)c2)cc1` [Example 52, 3-Fluorobenzaldehyde, O-[[(4-nonyloxyphenyl)amino]carbonyl]oxime], under 10 nM.
Still for that read-out and setting: as for `CCCCCCCCCCCCOc1ccc(NC(=O)Oc2ccccc2F)cc1` [Example 106, 4-Dodecyloxyphenylcarbamic acid, 2-fluorophenyl ester], the figure is 10 to 100 nM.
For the molecule `O=C(Nc1ccc(OCCCc2ccccc2)cc1)O/N=C/c1ccc(F)cc1` [Example 83, 4-Fluorobenzaldehyde, O-[[[4-(3-phenylpropoxy)phenyl]amino]carbonyl]oxime], the 50% inhibitory concentration (IC50) is under 10 nM.
As to `CCCCCCCCCCOc1ccc(NC(=O)O/N=C/c2ccc(F)cc2)cc1` [Example 34, 4-Fluorobenzaldehyde, O-[[(4-decyloxyphenyl)amino]carbonyl]oxime], the IC50 was under 10 nM.
On to `CCCCCCCCCOc1ccc(NC(=O)O/N=C/c2ccccc2)cc1` [Example 47, Benzaldehyde, O-[[(4-nonyloxyphenyl)amino]carbonyl]oxime], for which the concentration for half-maximal inhibition (IC50) was under 10 nM.
Still for that read-out and setting: as for `O=C(Nc1ccc(OCCCN2CCOCC2)cc1)O/N=C/c1ccc(F)cc1` [Example 58, 4-Fluorobenzaldehyde, O-[[4-[3-(4-morpholinyl)propoxyphenyl]amino]carbonyl]oxime], the figure is over 500 nM; as for `CCCCCCCCCCCOc1ccc(NC(=O)O/N=C/c2cccnc2)cc1` [Example 3, 3-Pyridinecarboxaldehyde, O-[[[4-(undecyloxy)phenyl]amino]carbonyl]oxime], under 10 nM; as for `CCCCCCCCCCCCOc1ccc(NC(=O)O/N=C/c2ccc(F)cc2)cc1` [Example 42, 4-Fluorobenzaldehyde, O-[[(4-dodecyloxyphenyl)amino]carbonyl]oxime], under 10 nM.
For `CCCCCCCCCOc1ccc(NC(=O)O/N=C/c2cccc(F)c2F)cc1` [Example 55, 2,3-Difluorobenzaldehyde, O-[[(4-nonyloxyphenyl)amino]carbonyl]oxime], the IC50 was under 10 nM.
With `O=C(Nc1ccc(Oc2ccccn2)cc1)O/N=C/c1ccccc1` [Example 149, Benzaldehyde, O-[[[4-[(2-pyridinyl)oxy]phenyl]amino]carbonyl]oxime], the IC50 lay within 10 to 100 nM.
On to `CCCCOc1ccc(C(CC)NC(=O)Oc2ccccc2F)cc1` (stereo not drawn) [Example 135, [1-(4-Butoxy-phenyl)-propyl]-carbamic acid 2-fluoro-phenyl ester], for which the IC50 is under 10 nM.
Take `CCCCCCOc1ccc(NC(=O)O/N=C/c2ccc(F)cc2)cc1` [Example 24, 4-Fluorobenzaldehyde, O-[[(4-hexyloxyphenyl)amino]carbonyl]oxime]: the IC50 is under 10 nM.
With `CCCCOc1ccc(CNC(=O)O/N=C/c2cccnc2)cc1` [Example 64, 3-Pyridinecarboxaldehyde, O-[[(4-butoxyphenylmethyl)amino]carbonyl]oxime], the IC50 lay within 10 to 100 nM.
As to `CCCCOc1cccc(NC(=O)O/N=C/c2cccnc2)c1` [Example 65, 3-Pyridinecarboxaldehyde, O-[[(3-butoxyphenyl)amino]carbonyl]oxime], the IC50 is 10 to 100 nM.
Take `O=C(Nc1ccc(Oc2cccnc2)cc1)O/N=C/c1ccccc1` [Example 151, Benzaldehyde, O-[[[4-[(3-pyridinyl)oxy]phenyl]amino]carbonyl]oxime]: the 50% inhibitory concentration (IC50) was under 10 nM.
In the case of `CCCCCCCCC(=O)Nc1ccc(NC(=O)O/N=C/c2ccc(F)cc2F)cc1` [Example 139, 2,4-Difluorobenzaldehyde, O-[[(4-Nonanoylamino-phenyl)amino]carbonyl]oxime], the IC50 is under 10 nM.
The same measure, in the same setting: for `CCCCCCCCCCCCOc1ccc(NC(=O)ON=C(C)C)cc1` [Example 40, 2-Propanone, O-[[(4-dodecyloxyphenyl)amino]carbonyl]oxime] the value was under 10 nM; for `CCCCCCCCCCCCOc1ccc(NC(=O)O/N=C/c2cccnc2)cc1` [Example 43, 3-Pyridinecarboxaldehyde, O-[[(4-dodecyloxyphenyl)amino]carbonyl]oxime], under 10 nM; for `O=C(Nc1ccc(OCCc2ccccc2)cc1)O/N=C/c1ccccc1` [Example 85, Benzaldehyde, O-[[[4-(2-phenylethoxy)phenyl]amino]carbonyl]oxime], under 10 nM.
Still for that read-out and setting: as for `CCCCOc1ccc(CNC(=O)Oc2ccccc2F)cc1` [Example 112, 4-(Butoxyphenylmethyl)carbamic acid, 2-fluorophenyl ester], the figure is under 10 nM.
In the case of `CCCCOc1ccc(CNC(=O)Oc2cccnc2)cc1` [Example 2, (4-Butoxyphenyl)methylcarbamic acid, 3-pyridinyl ester], the IC50 was under 10 nM.
